Here are results for 26 molecules from ChEMBL document CHEMBL1146992, “Identification of potent phenyl imidazoles as opioid receptor agonists” (Bioorg Med Chem Lett, 2006).

Assay [1] deals with Delta-type opioid receptor (Rattus norvegicus, UniProt P33533). Nature of the assay: Displacement of [3H]DPDPE from delta opioid receptor in rat brain. In kind it is tissue-based.
The target of assay [2] is Mu-type opioid receptor (Rattus norvegicus, UniProt P33535). Nature of the assay: Displacement of [3H]DAMGO from mu opioid receptor in rat brain. In kind it is tissue-based. On the technique in general: Loss of bound radioactivity is the signal in a displacement assay; it reports binding, not function.
Assay [3] deals with Opioid receptors; mu & delta (Rattus norvegicus) (UniProt P33533+P33535). Nature of the assay: Selectivity for delta opioid receptor over mu opioid receptor. In kind it is protein assay.
Assay [4] deals with Delta-type opioid receptor (Mus musculus, UniProt P32300). Nature of the assay: Activity against delta opioid receptor by stimulation of [35S]GTP-gamma-S binding in CHO-hgamma cells. In kind it is functional, cell-based. On the technique in general: GTPγS is a poorly hydrolysed GTP analogue; its binding reports G protein activation.
Assay [5] has as its target Mu-type opioid receptor (Cavia porcellus, UniProt P97266). Nature of the assay: Activity against mu opioid receptor by stimulation of [35S]GTP-gamma-S binding in CHO-hgamma cells. In kind it is functional, cell-based.

Chain of Opioid receptors; mu & delta (Rattus norvegicus) (P33533 whole entry, looked up): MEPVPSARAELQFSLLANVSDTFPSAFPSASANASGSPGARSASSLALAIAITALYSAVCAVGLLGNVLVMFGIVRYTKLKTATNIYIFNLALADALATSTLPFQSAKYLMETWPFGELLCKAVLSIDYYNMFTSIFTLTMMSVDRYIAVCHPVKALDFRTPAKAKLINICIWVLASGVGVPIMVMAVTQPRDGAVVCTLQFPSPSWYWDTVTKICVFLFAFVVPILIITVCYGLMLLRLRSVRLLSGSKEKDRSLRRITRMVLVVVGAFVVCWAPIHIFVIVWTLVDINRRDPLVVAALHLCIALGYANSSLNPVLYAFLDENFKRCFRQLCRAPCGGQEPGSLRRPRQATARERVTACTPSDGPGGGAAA
Chain of Opioid receptors; mu & delta (Rattus norvegicus) (P33535 whole entry, looked up): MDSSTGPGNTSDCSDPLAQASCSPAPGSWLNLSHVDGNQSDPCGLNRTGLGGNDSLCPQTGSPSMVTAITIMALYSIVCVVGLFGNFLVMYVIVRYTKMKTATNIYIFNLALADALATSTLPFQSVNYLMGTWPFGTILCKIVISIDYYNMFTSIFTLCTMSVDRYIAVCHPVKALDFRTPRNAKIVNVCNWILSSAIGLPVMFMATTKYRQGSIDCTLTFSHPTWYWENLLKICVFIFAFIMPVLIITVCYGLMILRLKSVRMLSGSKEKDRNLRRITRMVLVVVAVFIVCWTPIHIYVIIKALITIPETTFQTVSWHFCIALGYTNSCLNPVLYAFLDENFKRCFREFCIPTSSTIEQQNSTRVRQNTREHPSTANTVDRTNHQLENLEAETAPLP
Chain of Delta-type opioid receptor (Rattus norvegicus, UniProt P33533) (P33533 whole entry): as the sequence (P33533 whole entry, looked up) above
Chain of Mu-type opioid receptor (Cavia porcellus, UniProt P97266) (P97266 whole entry): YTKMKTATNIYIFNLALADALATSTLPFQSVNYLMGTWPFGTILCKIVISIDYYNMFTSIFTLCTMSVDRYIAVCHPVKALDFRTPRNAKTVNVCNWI
Chain of Mu-type opioid receptor (Rattus norvegicus, UniProt P33535) (P33535 whole entry): as the sequence (P33535 whole entry, looked up) above
Chain of Delta-type opioid receptor (Mus musculus, UniProt P32300) (P32300 whole entry): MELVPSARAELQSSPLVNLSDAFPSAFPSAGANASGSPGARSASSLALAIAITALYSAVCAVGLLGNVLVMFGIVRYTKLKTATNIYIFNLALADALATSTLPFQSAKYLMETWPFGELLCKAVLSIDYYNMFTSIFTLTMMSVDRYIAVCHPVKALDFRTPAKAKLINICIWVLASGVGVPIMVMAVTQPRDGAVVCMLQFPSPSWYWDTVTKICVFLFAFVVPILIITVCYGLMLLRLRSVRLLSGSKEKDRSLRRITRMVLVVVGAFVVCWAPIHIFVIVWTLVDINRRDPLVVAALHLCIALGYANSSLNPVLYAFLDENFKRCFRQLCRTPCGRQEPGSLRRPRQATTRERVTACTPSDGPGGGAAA

The term Ki denotes a measure of affinity in units of concentration, obtained from inhibition or displacement. For the molecule `Cc1[nH]c([C@@H]2Cc3ccccc3CN2C(=O)[C@@H](N)Cc2ccccc2)nc1-c1ccccc1`, the inhibition constant (Ki) stood at 236 nM in assay [1] and 1830 nM in assay [2]. In assay [3], the Ratio Ki worked out at 8.
For `N[C@@H](Cc1ccc(S(N)(=O)=O)cc1)C(=O)N1Cc2ccccc2C[C@H]1c1nc(-c2ccccc2)c[nH]1`, in assay [3], the Ratio Ki worked out at 3.4.
Regarding `Cc1cc(O)cc(C)c1C[C@H](N)C(=O)N1Cc2ccccc2C[C@H]1c1nc(-c2ccccc2)c(C)[nH]1`, the figures for the Ki in assay [1] and in assay [2] were 0.1 nM and 0.3 nM, respectively.
As to `COc1ccc(C[C@H](N)C(=O)N2Cc3ccccc3C[C@H]2c2nc(C)c(-c3ccccc3)[nH]2)cc1`, the Ratio Ki in assay [3] worked out at 6.4.
In the case of `N[C@@H](Cc1ccccc1)C(=O)N1Cc2ccccc2C[C@H]1c1nc(-c2ccccc2)c[nH]1`, the results for the Ki in assay [1] and in assay [2] were 266 nM and 443 nM, respectively. Moreover, the Ratio Ki in assay [3] stood at 1.7.
As to `Cc1[nH]c([C@@H]2Cc3ccccc3CN2C(=O)[C@@H](N)Cc2ccc(O)cc2)nc1-c1ccccc1`, the Ratio Ki in assay [3] turned out to be 75.
In the case of `CS(=O)(=O)Nc1ccc(C[C@H](N)C(=O)N2Cc3ccccc3C[C@H]2c2nc(-c3ccccc3)c[nH]2)cc1`, the inhibitory constant (Ki) turned out to be 342 nM in assay [1] and 356 nM in assay [2]. For the same molecule, the Ratio Ki in assay [3] amounted to 1.
For the molecule `N[C@@H](Cc1ccc(Cl)cc1)C(=O)N1Cc2ccccc2C[C@H]1c1nc(-c2ccccc2)c[nH]1`, the Ratio Ki in assay [3] is 4.6.
Usually EC50 stands for the midpoint of the concentration-response curve. Lower therefore signals an effect from little substance. For the molecule `Cc1cc(O)cc(C)c1C[C@H](N)C(=O)N1CCCC[C@H]1c1nc(-c2ccccc2)c[nH]1`, the Ki in assay [1] amounted to 1.9 nM; in assay [2], 0.05 nM. For the same molecule, the Ratio Ki in assay [3] turned out to be 0.03. Besides, the EC50 stood at 37 nM in assay [4] and 2 nM in assay [5].
As to `NC(=O)c1ccc(C[C@H](N)C(=O)N2Cc3ccccc3C[C@H]2c2nc(-c3ccccc3)c[nH]2)cc1`, the Ki in assay [1] was 1.3 nM; in assay [2], 23 nM. Also, the Ratio Ki in assay [3] was found to be 18.4. The concentration giving a half-maximal response (EC50) in assay [4] came to 3 nM; in assay [5], 155 nM.
`N[C@@H](Cc1ccc(C(=O)O)cc1)C(=O)N1Cc2ccccc2C[C@H]1c1nc(-c2ccccc2)c[nH]1`: the Ki in assay [1] is 5200 nM; in assay [2] it was 5800 nM. The Ratio Ki in assay [3] turned out to be 1.1.
Turning to `Cc1[nH]c([C@@H]2Cc3ccccc3CN2C(=O)[C@@H](N)Cc2ccc(C#N)cc2)nc1-c1ccccc1`, the inhibition constant Ki in assay [1] was found to be 752 nM; in assay [2] it was 1340 nM. The Ratio Ki in assay [3] was determined as 1.8.
As for `N[C@@H](Cc1ccc(O)cc1)C(=O)N1CCCC[C@H]1c1nc(-c2ccccc2)c[nH]1`, the results for the Ki in assay [1] and in assay [2] were 198 nM and 3.8 nM, respectively. In addition, the Ratio Ki in assay [3] was determined as 0.02.
Take `CC(=O)c1ccc(C[C@H](N)C(=O)N2Cc3ccccc3C[C@H]2c2nc(-c3ccccc3)c[nH]2)cc1`: in assay [1], the inhibitory constant (Ki) turned out to be 30 nM. In addition, the Ratio Ki in assay [3] turned out to be 14.
Regarding `Cc1cc(C(N)=O)cc(C)c1C[C@H](N)C(=O)N1Cc2ccccc2C[C@H]1c1nc(-c2ccccc2)c[nH]1`, the inhibition constant Ki in assay [2] was 1.4 nM. The values for the EC50 in assay [4] and in assay [5] were 22 nM and 161 nM, respectively.
As to `N[C@@H](Cc1ccc(CO)cc1)C(=O)N1Cc2ccccc2C[C@H]1c1nc(-c2ccccc2)c[nH]1`, the results for the Ki in assay [1] and in assay [2] were 466 nM and 912 nM, respectively. Moreover, the Ratio Ki in assay [3] is 2.
Regarding `Cc1cc(O)cc(C)c1C[C@H](N)C(=O)N1Cc2ccccc2C[C@H]1c1nc(C)c(-c2ccccc2)[nH]1`, the Ratio Ki in assay [3] amounted to 3.2.
In the case of `Cc1[nH]c([C@@H]2CCCCN2C(=O)[C@@H](N)Cc2ccc(O)cc2)nc1-c1ccccc1`, the Ratio Ki in assay [3] turned out to be 0.1. For the same molecule, the half-maximal effective concentration (EC50) in assay [4] was found to be 500 nM; in assay [5], 142 nM.
As for `Cc1[nH]c([C@@H]2Cc3ccccc3CN2C(=O)[C@@H](N)Cc2ccc(N)cc2)nc1-c1ccccc1`, the Ratio Ki in assay [3] came out at 9.
The molecule `NC(=O)c1ccc(C[C@H](N)C(=O)N2CCCC[C@H]2c2nc(-c3ccccc3)c[nH]2)cc1` came in with an inhibition constant Ki in assay [2] of 1.2 nM. In assay [3], the Ratio Ki was found to be 0.02. The figures for the EC50 in assay [4] and in assay [5] were 730 nM and 100 nM, respectively.
For the molecule `CC(=O)Nc1ccc(C[C@H](N)C(=O)N2Cc3ccccc3C[C@H]2c2nc(C)c(-c3ccccc3)[nH]2)cc1`, the Ratio Ki in assay [3] amounted to 6.
Still for that read-out and setting: under `Cc1[nH]c([C@@H]2Cc3ccccc3CN2C(=O)[C@@H](N)Cc2ccc(F)cc2)nc1-c1ccccc1` stands 19.
As to `Cc1cc(O)cc(C)c1C[C@H](N)C(=O)N1Cc2ccccc2C[C@H]1c1nc(-c2ccccc2)c[nH]1`, the Ki turned out to be 0.1 nM in assay [1] and 0.3 nM in assay [2]. Further, the Ratio Ki in assay [3] worked out at 3.2. The 50% effective concentration (EC50) was determined as 0.9 nM in assay [4] and 27 nM in assay [5].
For the molecule `N[C@@H](Cc1ccccc1)C(=O)N1CCCC[C@H]1c1nc(-c2ccccc2)c[nH]1`, the Ki in assay [1] amounted to 1130 nM; in assay [2], 18 nM. The Ratio Ki in assay [3] is 0.02.
`Cc1cc(C(N)=O)cc(C)c1C[C@H](N)C(=O)N1CCCC[C@H]1c1nc(-c2ccccc2)c[nH]1`: the Ki was 14 nM in assay [1] and 0.13 nM in assay [2]. In addition, the figures for the EC50 in assay [4] and in assay [5] were 135 nM and 9 nM, respectively.
Consider `N[C@@H](Cc1ccc(O)cc1)C(=O)N1Cc2ccccc2C[C@H]1c1nc(-c2ccccc2)c[nH]1`, for which the Ratio Ki in assay [3] was found to be 63. Besides, the EC50 in assay [4] came out at 19 nM.
